Like-named read-outs stand apart in the source and are kept apart here.
Assays:
[1] = system: H1819; experiment: Cell viability dose-response, H1819; format: cell-based, human
Protocol: (§1) FIG. 6A. […] Cell viability is plotted vs. compound concentration. Compound was added to cells plated at 15% confluence in 96-well plates in RPMI-1640 media supplemented with 5% Fetal Bovine Serum and 2 mM L-Glutamine. After 4 days of incubation, ATP levels were measured using Cell Titer Glo (Promega). Data are presented as the average of 2 replicates ±SEM.
(§2) Selectivity may be measured by the half maximal inhibitory concentration (IC50), which, as used herein, is a measure of the effectiveness of a compound in killing cells. This quantitative measure indicates how much of a particular compound is needed to kill a particular cell population by half (e.g., as indicated by the amount of ATP). […] The IC50 can be determined by constructing a dose-response curve. The lower the IC50, the higher the potency, and the greater the difference between IC50 values for different cell lines (e.g., sensitive lines vs. insensitive lines, and sensitive lines vs. normal lines) the greater the selectivity. […]
(§3) With this information, we synthesized and tested a series of small molecules derived in conception from the oxalamide and chromone scaffold including N-acyl ureas, as shown in Tables 6-8. Each compound was tested in a 12-point dose-response study starting at 50 micromolar and decreasing in 3-fold increments to sub-nanomolar concentrations, in duplicate. Additionally, one or more additional cell line was tested in the same way.

[2] = system: H2122; experiment: Cell viability dose-response, H2122; format: cell-based, human
Protocol: as §1, §2, §3

[3] = Homo sapiens, NCI-H1819, 12-point dose-response starting at 50 micromolar, 3-fold increments, in duplicate, read-out: toxicity data, H1819
[4] = Homo sapiens, NCI-H2122, 12-point dose-response starting at 50 micromolar, 3-fold increments, in duplicate, read-out: toxicity data, H2122
[5] = 12-point dose-response starting at 50 micromolar, 3-fold increments, in duplicate, read-out: toxicity data, H2122
[6] = 12-point dose-response starting at 50 micromolar, 3-fold increments, in duplicate, read-out: toxicity data, H1819
[7] = Homo sapiens, NCI-H1819, read-out: toxicity data, H1819
[8] = Homo sapiens, NCI-H1819, Tables 3 and 4, read-out: IC50 (uM) vs indicated non-small cell lung cancer cell line H1819
[9] = Homo sapiens, NCI-H2122, Tables 3 and 4, read-out: IC50 (uM) vs indicated non-small cell lung cancer cell line H2122

| Structure (SMILES) | IC50 [1, 3] | IC50 [2, 4] | also measured |
| --- | --- | --- | --- |
| COc1ccc(CCNC(=O)c2cc(OC)c3ccccc3n2)cc1 [SW208053-1-A] | 32 µM | 45.9 µM | – |
| COc1ccc(CCNC(=O)C(=O)Nc2cccnc2C)cc1 [SW208143-1-A] | ≥ 49.5 µM | ≥ 49.5 µM | – |
| COc1ccc(CCNC(=O)C(=O)Nc2cccc(Br)c2)cc1 [SW027952-2-A] | ≥ 49.5 µM | – | IC50 [2, 5]: 3.1 µM |
| COc1ccc(CNC(=O)NCc2ccccc2)cc1 [SW208047-1-A] | ≥ 49.5 µM | ≥ 49.5 µM | – |
| COc1ccc(CCCNC(=O)C(=O)c2ccccc2)cc1 [SW208152-1-A] | ≥ 49.5 µM | 15.2 µM | – |
| COc1ccc(CCNC(=O)C(=O)Nc2ccc(Br)cn2)cc1 [SW208128-1-A] | ≥ 49.5 µM | 0.289 µM | – |
| COc1ccc(CCNC(=O)C(=O)O)cc1 [SW208132-1-A] | ≥ 49.5 µM | ≥ 49.5 µM | – |
| COc1ccc(CCNC(=O)C(=O)Nc2cc(F)ccc2Cl)cc1 [SW206862-1-A] | ≥ 49.5 µM | ≥ 49.5 µM | – |
| COc1ccc(CCNC(=O)C(=O)Nc2ccccc2OC)cc1 [SW027954-2-A] | ≥ 49.5 µM | ≥ 49.5 µM | – |
| O=C(NCCc1ccc(O)cc1)C(=O)Nc1ccc(Cl)cc1 [SW208023-1-A] | 7.74 µM | 0.257 µM | – |
| COc1ccc(CCNC(=O)C(=O)Nc2ccc(Cl)c(OC)c2)cc1 [SW206973-1] | 49 µM | ≥ 49.5 µM | – |
| COc1ccc(CCNC(=O)C(=O)NC2CCCCC2)cc1 [SW208034-1-A] | ≥ 49.5 µM | ≥ 49.5 µM | – |
| COc1ccc(CCN(C)C(=O)C(=O)Nc2ccc(Cl)cc2)cc1 [SW208153-1-A] | ≥ 49.5 µM | 10.5 µM | – |
| COc1ccc(CCNC(=O)C(=O)Nc2cccc(F)n2)cc1 [SW209136-1-A] | ≥ 49.5 µM | ≥ 49.5 µM | – |
| COc1ccc(CCNC(=O)C(=O)Nc2ccc(OC)cc2C)cc1 [SW206968-1] | ≥ 49.5 µM | ≥ 49.5 µM | – |
| COc1ccc(CCNC(=O)NCc2ccccc2)cc1 [SW208043-2-A] | ≥ 49.5 µM | ≥ 49.5 µM | – |
| COc1ccc(CNC(=O)CNc2ccc(Cl)cc2)cc1 [SW208042-1-A] | ≥ 49.5 µM | ≥ 49.5 µM | – |
| O=c1c(Cc2ccccc2C(F)(F)F)coc2cc(OCc3cnn(-c4ccccc4)c3)ccc12 [SW209192-1] | – | – | AC50 ([1]; Homo sapiens, NCI-H1819, Table 8, 12-point dose-response starting at 50 micromolar): 49.5 µM; AC50 ([2]; Homo sapiens, NCI-H2122, Table 8, 12-point dose-response starting at 50 micromolar): 0.028 µM |
| COc1ccc(CCNC(=O)C(=O)Nc2ccc(Cl)cc2)cc1 [SW027951-2-A] | – | – | IC50 [1, 6]: ≥ 49.5 µM; IC50 [2, 5]: 0.28 µM |
| COc1ccc(CCNC(=O)Nc2ccc(Cl)cc2)cc1 [SW208045-1-A] | – | – | IC50 [1, 7]: ≥ 49.5 µM; IC50 ([2]; Homo sapiens, NCI-H2122, read-out: toxicity data, H2122): ≥ 49.5 µM |
| COc1ccc(CCNC(=O)C(=O)NC2CCC2)cc1 [SW208032-1-A] | ≥ 49.5 µM | ≥ 49.5 µM | – |
| COc1ccc(CCNC(=O)C(=O)Nc2cccc(F)c2C)cc1 [SW206882-1-A] | ≥ 49.5 µM | ≥ 49.5 µM | – |
| COc1ccc(CCNC(=O)C(=O)Nc2cc(F)ccc2Br)cc1 [SW206877-1-A] | ≥ 49.5 µM | ≥ 49.5 µM | – |
| COc1ccc(CCNC(=O)C(=O)Nc2cc(C)cc(F)c2)cc1 [SW206881-1-A] | ≥ 49.5 µM | 9.9 µM | – |
| C#CCOc1ccc(CCNC(=O)C(=O)Nc2ccc(C(=O)c3ccccc3)cc2)cc1 [SW207038-2-A] | ≥ 49.5 µM | 3.17 µM | – |
| O=C(NCc1ccccc1)NCc1ccccc1 [SW208062-1-A] | – | ≥ 49.5 µM | IC50 [1, 7]: ≥ 49.5 µM |
| COc1ccc(CCNC(=O)C(=O)Nc2cccc(Br)n2)cc1 [SW208126-1-A] | ≥ 49.5 µM | ≥ 49.5 µM | – |
| COc1ccc(CCNC(=O)C(=O)Oc2ccccc2)cc1 [SW208147-1-A] | ≥ 49.5 µM | 2.07 µM | – |

| Structure (SMILES) | IC50 [1, 3] | IC50 [2, 4] | also measured |
| --- | --- | --- | --- |
| COc1ccc(CCNC(=O)C(=O)NN2CCCCC2)cc1 [SW208129-1-A] | ≥ 49.5 µM | ≥ 49.5 µM | – |
| COc1ccc(CCNC(=O)C(=O)Nc2cc(Cl)ccc2C)cc1 [SW206866-1-A] | ≥ 49.5 µM | ≥ 49.5 µM | – |
| COc1ccc(CCNC(=O)C(=O)Nc2ccc(F)cc2)cc1 [SW206961-1] | ≥ 49.5 µM | 0.286 µM | – |
| COc1ccc(CCNC(=O)C(=O)Nc2cccc(F)c2)cc1 [SW2068S9-1-A] | ≥ 49.5 µM | 2.26 µM | – |
| COc1ccc(CCNC(=O)c2nc3ccccc3o2)cc1 [SW208125-1-A] | ≥ 49.5 µM | 30.4 µM | – |
| COc1ccc(CCNC(=O)C(=O)Nc2cc(C)ccc2Cl)cc1 [SW206867-1-A] | ≥ 49.5 µM | ≥ 49.5 µM | – |
| COc1ccc(CCNC(=O)C(=O)Nc2cc(Cl)c(Br)c(Cl)c2)cc1 [SW206875-1-A] | 17.8 µM | 25.3 µM | – |
| COc1ccc(CCCNC(=O)NCc2ccc(Cl)cc2)cc1 [SW208121-1-A] | 5.75 µM | 3.67 µM | – |
| COc1ccc(CCNC(=O)C(=O)Nc2cc(Cl)cc(Cl)c2)cc1 [SW206891-2] | – | – | IC50 [1, 6]: ≥ 49.5 µM; IC50 [2, 5]: ≥ 49.5 µM |
| Cc1ccccc1CCNC(=O)C(=O)Nc1ccc(Cl)cc1 [SW208027-1-A] | ≥ 49.5 µM | ≥ 49.5 µM | – |
| COc1ccc(CCNC(=O)C(=O)Nc2ccc(F)c(Cl)c2)cc1 [SW206860-1-A] | ≥ 49.5 µM | 0.738 µM | – |
| COc1ccc(CCNC(=O)C(=O)Nc2ccc(Cl)c(Br)c2)cc1 [SW206954-1] | ≥ 49.5 µM | 0.871 µM | – |
| COc1ccc(CCNC(=O)C(=O)NC2CCCCCC2)cc1 [SW208035-1-A] | ≥ 49.5 µM | ≥ 49.5 µM | – |
| COc1ccc(CCNC(=O)Nc2ccc(OC)cc2)cc1 [SW208024-1-A] | ≥ 49.5 µM | ≥ 49.5 µM | – |
| O=C(NCCc1ccc(F)cc1)C(=O)Nc1ccc(Cl)cc1 [SW208039-1-A] | ≥ 49.5 µM | 47.5 µM | – |
| COc1ccc(CCNC(=O)c2ccc3cccc(O)c3n2)cc1 [SW208056-1-A] | 29.8 µM | 30.2 µM | – |
| COc1ccc(CCNC(=O)C(=O)Nc2ccc(Cl)c(F)c2)cc1 [SW206952-1] | ≥ 49.5 µM | 0.294 µM | – |
| COc1ccc2nc(NC(=O)c3ccc([C@@H](N)c4ccccc4)cc3)sc2c1 [SW208109] | – | – | IC50 [1, 8]: 7.75 µM; IC50 [2, 9]: 0.067 µM |
| COc1ccc(CCNC(=O)c2nc3ccccc3[nH]2)cc1 [SW208050-1-A] | ≥ 49.5 µM | ≥ 49.5 µM | – |
| COc1ccc(CCNC(=O)C(=O)NCc2ccc(Cl)cc2)cc1 [SW208025-1-A] | ≥ 49.5 µM | ≥ 49.5 µM | – |
| COc1ccc(CCNC(=O)C(=O)N2CCc3ccccc3C2)cc1 [SW208060-1-A] | ≥ 49.5 µM | ≥ 49.5 µM | – |
| COc1ccc(CCNC(=O)C(=O)Nc2ccccc2F)cc1 [SW027962-2-A] | ≥ 49.5 µM | ≥ 49.5 µM | – |
| COc1ccc(CCCNC(=O)NCc2ccccc2)cc1 [SW208120-1-A] | ≥ 49.5 µM | 38.9 µM | – |
| COc1ccc(CCNC(=O)C(=O)Nc2cc(Cl)cc(C(F)(F)F)c2)cc1 [SW206869-1-A] | ≥ 49.5 µM | ≥ 49.5 µM | – |
| COc1ccc(CCNC(=O)c2ccc3cccc(F)c3n2)cc1 [SW208055-1-A] | ≥ 49.5 µM | ≥ 49.5 µM | – |
| COc1ccc(CCNC(=O)C(=O)Nc2cc(F)ccc2F)cc1 [SW206884-1-A] | ≥ 49.5 µM | ≥ 49.5 µM | – |
| COc1ccc2nc(NC(=O)c3ccc([C@H](N)c4ccccc4)cc3)sc2c1 [SW208110] | – | – | IC50 [1, 8]: 5.97 µM; IC50 [2, 9]: 0.012 µM |
